# Active and inactive are the calls of the source. The calls are words filed in the database; no cut-off is given here.
# Tests used:
# [1] = system: Staphylococcus aureus; test: Antimicrobial activity against methicillin-resistant Staphylococcus aureus ATCC BAA-41 measured after 18 hrs by broth microdilution method; format: functional; settings: ATCC BAA-41, 18 h
# [2] = system: Enterococcus faecium; test: Antimicrobial activity against vancomycin-resistant Enterococcus faecium ATCC 700221 measured after 18 hrs by broth microdilution method; format: functional; settings: ATCC 700221, 18 h
# [3] = target: T1, Cell division protein FtsZ (Bacillus subtilis (strain 168)) (UniProt P17865); test: Inhibition of cell division function of FtsZ in Bacillus subtilis 168 assessed as increase in cell length at MIC after 4 hrs by FM4-64 dye based confocal microscopic method; settings: Bacillus subtilis subsp. subtilis str. 168
# T1 sequence (whole entry): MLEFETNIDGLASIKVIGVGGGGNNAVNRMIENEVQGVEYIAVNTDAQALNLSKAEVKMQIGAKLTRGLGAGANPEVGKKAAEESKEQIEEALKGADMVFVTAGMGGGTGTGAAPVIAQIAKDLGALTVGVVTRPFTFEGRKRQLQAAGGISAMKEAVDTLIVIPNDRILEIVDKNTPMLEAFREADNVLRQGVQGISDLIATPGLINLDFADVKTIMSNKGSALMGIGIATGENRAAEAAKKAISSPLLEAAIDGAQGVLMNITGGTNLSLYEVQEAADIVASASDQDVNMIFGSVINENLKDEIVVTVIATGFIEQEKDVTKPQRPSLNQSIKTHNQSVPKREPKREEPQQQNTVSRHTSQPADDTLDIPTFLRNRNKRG
# [4] = system: Pseudomonas aeruginosa; test: Antimicrobial activity against multidrug-resistant Pseudomonas aeruginosa ATCC BAA-2108 measured after 18 hrs by broth microdilution method; format: functional; settings: ATCC BAA-2108, 18 h
# [5] = system: Enterobacter cloacae; test: Antimicrobial activity against Ampc beta-lactamase expressing Enterobacter cloacae ATCC BAA-1143 measured after 18 hrs by broth microdilution method; format: functional; settings: ATCC BAA-1143, 18 h
# [6] = system: Staphylococcus aureus; test: Antimicrobial activity against penicillin-resistant Staphylococcus aureus ATCC 29213 measured after 18 hrs by broth microdilution method; format: functional; settings: ATCC 29213, 18 h
# [7] = system: Acinetobacter baumannii; test: Antimicrobial activity against multidrug-resistant Acinetobacter baumannii ATCC 19606 measured after 18 hrs by broth microdilution method; format: functional; settings: ATCC 19606 = CIP 70.34 = JCM 6841, 18 h
# [8] = system: Escherichia coli; test: Antimicrobial activity against NDM1 beta -lactamse expressing Escherichia coli ATCC BAA-2469 measured after 18 hrs by broth microdilution method; format: functional; settings: ATCC BAA-2469, 18 h
# [9] = system: Klebsiella pneumoniae; test: Antimicrobial activity against NDM1 beta-lactamase expressing Klebsiella pneumoniae ATCC BAA-2470 measured after 18 hrs by broth microdilution method; format: functional; settings: ATCC BAA-2470, 18 h
# [10] = system: Enterococcus faecalis; test: Antimicrobial activity against Enterococcus faecalis ATCC 29212 measured after 18 hrs by broth microdilution method; format: functional; settings: ATCC 29212, 18 h
# [11] = system: Enterococcus faecium; test: Antimicrobial activity against drug-susceptible Enterococcus faecium ATCC 49624 measured after 18 hrs by broth microdilution method; format: functional; settings: ATCC 49624, 18 h
# [12] = system: Staphylococcus aureus; test: Antimicrobial activity against methicillin-resistant Staphylococcus aureus ATCC 43300 measured after 18 hrs by broth microdilution method; format: functional; settings: ATCC 43300, 18 h
# [13] = system: Staphylococcus aureus; test: Antimicrobial activity against Staphylococcus aureus ATCC 25923 measured after 18 hrs by broth microdilution method; format: functional; settings: ATCC 25923, 18 h
# [14] = system: Escherichia coli; test: Antimicrobial activity against Escherichia coli ATCC 25922 measured after 18 hrs by broth microdilution method; format: functional; settings: ATCC 25922, 18 h
# [15] = system: Bacillus subtilis; test: Antibacterial activity against Bacillus subtilis 168 measured after 18 hrs by broth microdilution method; format: functional; settings: subsp. subtilis str. 168, 18 h
# [16] = system: Staphylococcus aureus; test: Antimicrobial activity against penicillin-resistant Staphylococcus aureus ATCC 29213 assessed as ratio of MIC after and before 15 serial passages preincubated followed by replating and measured after 24 hrs; format: functional
# [17] = system: Staphylococcus aureus; test: Bactericidal activity against penicillin-resistant Staphylococcus aureus ATCC 29213 incubated for 18 hrs followed by replating on TSB agar and measured after 24 hrs by broth microdilution method; format: functional
# [18] = system: Staphylococcus aureus; test: Bactericidal activity against methicillin-resistant Staphylococcus aureus ATCC BAA-41 incubated for 18 hrs followed by replating on TSB agar and measured after 24 hrs by broth microdilution method; format: functional
Compound,MIC [1] [µg/mL],MIC [2] [µg/mL],inhibition [3],MIC [4] [µg/mL],MIC [5] [µg/mL],MIC [6] [µg/mL],MIC [7] [µg/mL],MIC [8] [µg/mL],MIC [9] [µg/mL],MIC [10] [µg/mL],MIC [11] [µg/mL],MIC [12] [µg/mL],MIC [13] [µg/mL],MIC [14] [µg/mL],MIC [15] [µg/mL],Ratio [16],MBC [17] [µg/mL],MBC [18] [µg/mL]
CC1CCN(c2cc(/C=C/c3c[nH]c4ccccc34)[n+](C)c3ccccc23)CC1.[I-],4,4,Active,> 64,> 64,4,32,32,> 64,4,2,4,2,16,4,–,–,–
C[n+]1c(/C=C/c2c[nH]c3ccccc23)cc(NCCN2CCCC2)c2ccccc21.[I-],64,64,–,> 64,> 64,16,> 64,64,> 64,64,32,64,16,64,32,–,–,–
C[n+]1c(/C=C/c2c[nH]c3ccccc23)cc(NCCN2CCOCC2)c2ccccc21.[I-],64,64,–,> 64,> 64,32,> 64,> 64,> 64,64,32,64,64,> 64,64,–,–,–
C[n+]1c(/C=C/c2c[nH]c3ccccc23)ccc2ccccc21.[I-],32,64,–,> 64,> 64,32,> 64,> 64,> 64,32,32,32,32,> 64,32,–,–,–
CC1CCN(c2cc(/C=C/c3cc4ccccc4[nH]3)[n+](C)c3ccccc23)CC1.[I-],8,8,–,> 64,> 64,4,> 64,32,> 64,8,4,8,4,32,8,–,–,–
CCN(CC)CCNc1cc(/C=C/c2c[nH]c3ccccc23)[n+](C)c2ccccc12.[I-],32,64,–,> 64,> 64,16,> 64,64,> 64,64,32,32,16,64,16,–,–,–
C[n+]1c(/C=C/c2cc3ccccc3[nH]2)cc(N2CCCC2)c2ccccc21.[I-],8,16,–,> 64,> 64,2,64,32,> 64,16,8,8,4,32,8,–,–,–
C[n+]1c(/C=C/c2cc3ccccc3[nH]2)cc(NCCN2CCCCC2)c2ccccc21.[I-],32,32,–,> 64,> 64,16,64,64,> 64,64,16,32,16,32,16,–,–,–
CC1(C)S[C@@H]2[C@H](NC(=O)Cc3ccccc3)C(=O)N2[C@H]1C(=O)O [PENICILLIN G],> 64,> 64,–,> 64,> 64,> 64,64,> 64,> 64,0.5,0.25,> 64,< 0.125,1,32,–,–,–
C[n+]1c(/C=C/c2c[nH]c3ccccc23)cc(N2CCCC2)c2ccccc21.[I-],4,8,–,> 64,> 64,2,64,32,> 64,16,4,16,4,32,8,–,–,–
CCN(CC)CCNc1cc(/C=C/c2cc3ccccc3[nH]2)[n+](C)c2ccccc12.[I-],32,64,–,> 64,> 64,16,> 64,64,> 64,64,32,64,16,64,16,–,–,–
C[n+]1c(/C=C/c2c[nH]c3ccccc23)cc(N2CCOCC2)c2ccccc21.[I-],32,32,–,> 64,> 64,16,> 64,> 64,> 64,16,16,32,16,64,16,–,–,–
CCn1cc(C(=O)O)c(=O)c2cc(F)c(N3CCNCC3)cc21 [NORFLOXACIN],–,–,–,–,–,–,–,–,–,–,–,–,–,–,–,500,–,–
CO[C@H]1/C=C/O[C@@]2(C)Oc3c(C)c(O)c4c(O)c(c(/C=N/N5CCN(C)CC5)c(O)c4c3C2=O)NC(=O)/C(C)=C\C=C\[C@H](C)[C@H](O)[C@@H](C)[C@@H](O)[C@@H](C)[C@H](OC(C)=O)[C@@H]1C [RIFAMPIN],–,–,–,–,–,–,–,–,–,–,–,–,–,–,–,2000,–,–
C[n+]1c(/C=C/c2cc3ccccc3[nH]2)ccc2ccccc21.[I-],32,64,–,> 64,> 64,32,> 64,64,> 64,32,32,64,32,64,32,–,–,–
O=C(O)c1cn(C2CC2)c2cc(N3CCNCC3)c(F)cc2c1=O [CIPROFLOXACIN],> 64,> 64,–,64,–,2,2,> 64,64,4,32,2,< 0.125,< 0.125,2,–,–,–
CN[C@H](CC(C)C)C(=O)N[C@H]1C(=O)N[C@@H](CC(N)=O)C(=O)N[C@H]2C(=O)N[C@H]3C(=O)N[C@H](C(=O)N[C@H](C(=O)O)c4cc(O)cc(O)c4-c4cc3ccc4O)[C@H](O)c3ccc(c(Cl)c3)Oc3cc2cc(c3O[C@@H]2O[C@H](CO)[C@@H](O)[C@H](O)[C@H]2O[C@H]2C[C@](C)(N)[C@H](O)[C@H](C)O2)Oc2ccc(cc2Cl)[C@H]1O [VANCOMYCIN],–,> 64,–,> 64,> 64,–,64,> 64,> 64,2,–,–,–,> 64,0.25,–,2,2
C[n+]1c(/C=C/c2cc3ccccc3[nH]2)cc(N2CCOCC2)c2ccccc21.[I-],16,32,–,> 64,> 64,16,> 64,64,> 64,64,16,16,16,64,8,–,–,–

# Source: ChEMBL document CHEMBL4480418, “Antibacterial activity of indolyl-quinolinium derivatives and study their mode of action” (Bioorg Med Chem, 2019)
